The values that follow come from PubChem BioAssay AID1406 (The Scripps Research Institute Molecular Screening Center, 2008).

The EC50 is the concentration giving half of the maximal effect.

The structures appear in SMILES notation. Calls of active or inactive are those of the source.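 How the source made its calls: active means STAT1 reporter activators whose half-maximal activating concentration EC50 is 10 µM or lower; inactive means EC50 above 10 µM or no activation.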

One assay concerns NIH 3T3 STAT1 luciferase reporter, luminescence. The assay can be described thus: STAT1 transcription enhancement, IFN-gamma induced – cell-based, NIH 3T3, luciferase luminescence, counter-screen for STAT3 activator project, dose response (AID 1406).
Conditions: not given
(In general: Counterscreens check selectivity or assay interference.)
Consider `CC1=NN(c2ccccc2)C(=O)/C1=C/c1c(O)[nH]c(=O)[nH]c1=O`, for which the EC50 was > 55.7 µM (inactive).

As to `c1ccc2c(CNC3CCCCCC3)c[nH]c2c1`, the EC50 was > 55.7 µM (inactive).

Still in this assay, the particulars now being: cells stimulated with IFN-gamma at EC80.
Take `O=C(CCc1nnc(Cc2ccc3c(c2)OCO3)o1)NCc1nc2ccccc2s1`: the EC50 is > 55.7 µM (inactive).

For the compound `COc1ccc(S(=O)(=O)Nc2nc3ccccc3s2)cc1OC`, the EC50 is > 55.7 µM (inactive).

Turning to `CCn1c(C(=O)Nc2ccsc2C(=O)OC)cc2sc(Cl)cc21`, the EC50 is > 55.7 µM (inactive).

For the compound `Cc1nn(-c2ccc(Cl)cc2)c(N)c1C(O)(CSc1nccn1C)C(F)(F)F` (stereo unspecified), the EC50 is > 55.7 µM (inactive).

`CC1CCN(C(=O)Cn2c(=O)n(CCc3ccccc3)c(=O)c3ccccc32)CC1`: the EC50 was > 55.7 µM (inactive).

For the compound `CCCN(CCC)C(=O)Cn1c2ccccc2c2nc(=O)cc(C)n21`, the EC50 is > 55.7 µM (inactive).

As for `COc1ccc(Cl)cc1-c1nc(-c2ccc(Br)o2)no1`, the EC50 was > 55.7 µM (inactive).

As for `COCCNC(=O)C(=O)NNC(=O)c1ccccc1OC`, the EC50 was > 55.7 µM (inactive).

With `Nc1nc(-c2ccc(Cl)cc2)nn1C(=O)c1cccs1`, the EC50 was > 55.7 µM (inactive).

As for `Cc1nc2c(n1C1CCCCC1)C(=O)c1ccccc1C2=O`, the EC50 is > 55.7 µM (inactive).

Take `Cc1noc(/C=C/N(C)C)c1S(=O)(=O)N1CCc2ccccc21`: the EC50 was > 55.7 µM (inactive).

For the compound `O=C(Nc1ccccc1O)c1csc2c1CCCC2`, the EC50 is > 55.7 µM (inactive).

Consider `O=C(Nc1nnc(-c2ccccc2Cl)o1)c1nc2ccccc2s1`, for which the EC50 was > 55.7 µM (inactive).

In the case of `COc1ccccc1C(=O)Nc1cc(Cl)ccc1O`, the EC50 is > 55.7 µM (inactive).

Regarding `CCCSc1nnc(Sc2nnnn2-c2ccccc2)s1`, the EC50 is > 55.7 µM (inactive).

In the case of `CC(C)CC1c2[nH]c3ccccc3c2CCN1C(=O)CCC(=O)N(C)C` (stereo unspecified), the EC50 was > 55.7 µM (inactive).

As to `CN1CCN(CCCNC(=O)c2cc3c(-c4ccc(Cl)cc4)nn(C)c3s2)CC1`, the EC50 was > 55.7 µM (inactive).

With `CC(=O)n1cc(Nc2ccc([N+](=O)[O-])cc2)c2ccccc21`, the EC50 was > 55.7 µM (inactive).

Consider `CN1C(=O)c2ccccc2C(C(=O)NCCCN2CCCC2=O)C1c1c[nH]c2ccccc12` (stereo unspecified), for which the EC50 is > 55.7 µM (inactive).

Consider `Cc1nonc1CC(=O)N1CCc2c([nH]c3ccccc23)C1c1ccccc1F` (stereo unspecified), for which the EC50 is > 55.7 µM (inactive).

As to `COc1ccccc1NC(=O)c1[nH]c(C)c(C(C)=O)c1C`, the EC50 was > 55.7 µM (inactive).

As for `COc1ccc(-c2nnc(Nc3nc4c(OC)cccc4s3)o2)cc1`, the EC50 is > 55.7 µM (inactive).

Take `COc1ccc(C2c3[nH]c4ccccc4c3CCN2C(=O)c2ccc(=O)n(C)n2)c(F)c1` (stereo unspecified): the EC50 was > 55.7 µM (inactive).

Regarding `O=C(O)C1CC=CCC1C(=O)Nc1ccc(S(=O)(=O)N2CCCc3ccccc32)cc1` (stereo unspecified), the EC50 is > 55.7 µM (inactive).

For the compound `COC(=O)NNC(=O)c1ccccc1OC`, the EC50 was > 55.7 µM (inactive).

`CCN(CC)S(=O)(=O)c1ccc(-c2nnc3sc4cccc(C)c4n23)cc1`: the EC50 is > 55.7 µM (inactive).

Consider `Cc1cccc2c1NC(=O)/C2=C\C(=O)c1cccs1`, for which the EC50 was > 55.7 µM (inactive).

Regarding `CCOC(=O)CC1C(=O)NCCN1C(=O)c1cc2c(=O)n3cccc(C)c3nc2s1` (stereo unspecified), the EC50 was > 55.7 µM (inactive).

On to `Cc1c(C#N)c2ccccc2n1CC(=O)O`, for which the EC50 was > 55.7 µM (inactive).

Turning to `O=C(Cc1c[nH]c2ccccc12)Nc1nnc(C2CC2)s1`, the EC50 is > 55.7 µM (inactive).

`O=C(C1CCCN(S(=O)(=O)c2cccc3cccnc23)C1)N1CCc2ccccc21` (stereo unspecified): the EC50 is > 55.7 µM (inactive).

With `CN(C)C(=O)COC(=O)/C=C/c1ccccc1[N+](=O)[O-]`, the EC50 was > 55.7 µM (inactive).

For `CC(=O)Nc1c(Cl)n(C(C)=O)c2ccccc12`, the EC50 was > 55.7 µM (inactive).

Turning to `O=C(CN1CCNCC1)Nc1ccc(Oc2ccccc2)cc1`, the EC50 was > 55.7 µM (inactive).

Turning to `COc1cccc(-c2nc(N3CCCCC3C)c3ccccc3n2)c1O` (stereo unspecified), the EC50 is > 55.7 µM (inactive).

`COc1cc(NC(=O)c2cc(-c3ccco3)on2)c(OC)cc1Cl`: the EC50 is > 55.7 µM (inactive).

With `CCC(C(=O)Nc1ccccc1OC)n1c(C(=O)OC)cc2ccsc21` (stereo unspecified), the EC50 was > 55.7 µM (inactive).

`COCc1cc(C)nc2sc(C(=O)NN)c(-n3cccc3)c12`: the EC50 is > 55.7 µM (inactive).

As for `CN1N=C(C(=O)N2CCc3c([nH]c4ccccc34)C2c2c(F)cccc2Cl)CCC1=O` (stereo unspecified), the EC50 is > 55.7 µM (inactive).

For `COc1ccccc1C(=O)NNC(=S)Nc1ccccc1`, the EC50 was > 55.7 µM (inactive).

Take `COCCNC(=O)c1cc2c(-c3ccc(Cl)cc3)nn(C)c2s1`: the EC50 was > 55.7 µM (inactive).

Regarding `CCOc1ccc(CN2CCN(Cc3cc4ccccc4[nH]3)CC2CCO)cc1` (stereo unspecified), the EC50 was > 55.7 µM (inactive).

For the compound `CCOC(=O)c1sc(NCc2ccco2)c(-c2nc3ccccc3s2)c1N`, the EC50 is > 55.7 µM (inactive).

Regarding `CCC(CC)NC(=O)Cc1ccccc1[N+](=O)[O-]`, the EC50 is > 55.7 µM (inactive).

As to `COCCSc1ccccc1C(=O)NCCc1ccccc1`, the EC50 was > 55.7 µM (inactive).

For `Cn1nc(-c2ccc(Cl)cc2)c2cc(C(=O)NCCCN3CCOCC3)sc21`, the EC50 is > 55.7 µM (inactive).

As for `COc1ccccc1C(=O)NNC(=O)c1ccc(NC(=O)C(C)C)cc1`, the EC50 is > 55.7 µM (inactive).

`COc1ccccc1-c1nnc(SCC(=O)NC2CCCCC2)o1`: the EC50 was > 55.7 µM (inactive).

Regarding `COc1cccc2sc(Nc3nnc(-c4ccc(F)cc4)o3)nc12`, the EC50 is > 55.7 µM (inactive).

`Cc1cccc(NC(=O)c2cc([N+](=O)[O-])ccc2Cl)c1O`: the EC50 was > 55.7 µM (inactive).

On to `CCCNC(=O)Cn1c2ccccc2c2nc(=O)cc(C)n21`, for which the EC50 is > 55.7 µM (inactive).

`CCOc1ccccc1C1CC(c2cccs2)=NN1S(C)(=O)=O` (stereo unspecified): the EC50 was > 55.7 µM (inactive).

In the case of `CCOc1ccccc1CN1CCN(Cc2cc3ccccc3[nH]2)CC1CCO` (stereo unspecified), the EC50 is > 55.7 µM (inactive).

Consider `COc1ccc(NC(=O)N2CCn3c2nc2ccccc23)cc1`, for which the EC50 was > 55.7 µM (inactive).

In the case of `COC(=O)c1sccc1NC(=O)c1ccc(Br)s1`, the EC50 was > 55.7 µM (inactive).

As for `O=C(c1cccnc1)N1CCc2ccccc21`, the EC50 was > 55.7 µM (inactive).

Consider `COc1ccc(C)cc1NC(=O)c1[nH]c(C)c(C(C)=O)c1C`, for which the EC50 was > 55.7 µM (inactive).

For the compound `O=C(Cc1cnc2ncnn2c1)N1CCc2c([nH]c3ccccc23)C1c1ccccc1F` (stereo unspecified), the EC50 is > 55.7 µM (inactive).

For the compound `Cc1nc(/N=C(\N)Nc2ccccc2)nc2ccccc12`, the EC50 was > 55.7 µM (inactive).

`COC(=O)c1sccc1NC(=O)c1cc2c(s1)CCCC2`: the EC50 was > 55.7 µM (inactive).

On to `COc1ccc(CN2CCN(S(=O)(=O)c3ccc(C)cc3)CC2)cc1Br`, for which the EC50 was > 55.7 µM (inactive).

For the compound `Cc1c(C(=O)NCc2cccnc2)oc2ccc(S(=O)(=O)N3CC(C)CC(C)C3)cc12` (stereo unspecified), the EC50 was > 55.7 µM (inactive).

With `O=C(Cc1cccs1)Nc1ccccn1`, the EC50 is > 55.7 µM (inactive).

Consider `Cc1nc2ccccc2cc1O`, for which the EC50 was > 55.7 µM (inactive).

For `O=C(Cc1c[nH]c2ccccc12)Nc1nc2ccccc2[nH]1`, the EC50 was > 55.7 µM (inactive).

As to `O=c1c2ccccc2ncn1Cc1ccco1`, the EC50 is > 55.7 µM (inactive).

In the case of `Cn1nc(-c2ccc(Cl)cc2)c2cc(C(=O)NCC3CCCO3)sc21` (stereo unspecified), the EC50 is > 55.7 µM (inactive).

Take `COCCCNC(=O)c1cc2c(-c3ccc(Cl)cc3)nn(C)c2s1`: the EC50 is > 55.7 µM (inactive).

For the compound `CCCc1cc(C(=O)Nc2cc(OC)c(Cl)cc2OC)no1`, the EC50 was > 55.7 µM (inactive).

For `Nc1ccccc1Sc1nc2ccccc2[nH]1`, the EC50 is > 55.7 µM (inactive).

In the case of `O=C(CCCSc1nc2ccccc2s1)NCc1ccco1`, the EC50 is > 55.7 µM (inactive).

With `CN1C(=O)/C(=C\c2cc(Br)cs2)c2ccccc21`, the EC50 is > 55.7 µM (inactive).

Consider `CC1Cc2ccccc2N1Cc1cc(=O)n2ccsc2n1` (stereo unspecified), for which the EC50 is > 55.7 µM (inactive).

In the case of `COc1ccc(C2c3[nH]c4ccccc4c3CCN2C(=O)c2cc3ncccn3n2)c(F)c1` (stereo unspecified), the EC50 is > 55.7 µM (inactive).

For the compound `Cc1ccc(CC(=O)Nc2nc3c(s2)CCCC3)cc1`, the EC50 was > 55.7 µM (inactive).

With `Cc1cc(-c2ccc(Cl)cc2)c(C#N)c(N)n1`, the EC50 is > 55.7 µM (inactive).

Consider `Cn1nc(-c2ccc(Cl)cc2)c2cc(C(=O)NCCCN3CCCC3)sc21`, for which the EC50 was 21.6 µM (inactive).

Turning to `CN(C)C(CN1C(=O)C2CC=CCC2C1=O)c1cn(C)c2ccccc12` (stereo unspecified), the EC50 is > 55.7 µM (inactive).

Regarding `COC(=O)c1n[nH]c2ccccc12`, the EC50 was > 55.7 µM (inactive).

As to `COc1cc(NC(=O)c2cc(C3CC3)on2)c(OC)cc1Cl`, the EC50 was > 55.7 µM (inactive).

`COc1cc(NC(=O)c2cc(C(C)C)on2)c(OC)cc1Cl`: the EC50 is > 55.7 µM (inactive).

Consider `COCCCNc1nc2c(-c3cccc(C(F)(F)F)c3)nnn2c2ccccc12`, for which the EC50 was > 55.7 µM (inactive).

On to `CCc1cc2c(NCCC(=O)O)nc(C)nc2s1`, for which the EC50 is > 55.7 µM (inactive).

In the case of `Cc1ccccc1C1c2[nH]c3ccccc3c2CCN1C(=O)c1ccc(=O)n(C)n1` (stereo unspecified), the EC50 was > 55.7 µM (inactive).

For the compound `CC(=O)N1N=C(c2ccccc2O)OC1(C)CC(=O)Nc1ccccc1` (stereo unspecified), the EC50 is > 55.7 µM (inactive).

As to `Cn1c(CNc2ccccc2O)nc2ccccc21`, the EC50 was > 55.7 µM (inactive).

Take `CCOc1ccccc1-c1n[nH]c(=S)o1`: the EC50 was > 55.7 µM (inactive).

Consider `O=C(c1cc[n+]([O-])cc1)N1CCc2c([nH]c3ccccc23)C1c1ccccc1Cl` (stereo unspecified), for which the EC50 was > 55.7 µM (inactive).

In the case of `CN1CCN(C(=O)CNc2ccc(C(F)(F)F)cc2[N+](=O)[O-])CC1`, the EC50 was > 55.7 µM (inactive).
